Assay results as given in publication PMC8950477 (Pharmaceuticals, 2022).
Read-outs that look alike come from different tables or passages of the source.

How the values were obtained:
[1] = test system: K562 cells; assay: K562 cell viability assay (resazurin); format: cell-based, human; settings: for CC50: Homo sapiens, K562 cells, concentration-response curve
Description: The assays were performed on two cell lines, as described below. […] The K562 strain was grown in RPMI-1640 medium (R8758, Sigma-Aldrich, St. Louis, MO, USA) according to the provider’s recommendations and the literature [27, 28]. […] The media were supplemented with 10% fetal bovine serum (FBS) and 50 μg/mL gentamicin. All cell lines were grown in a cell culture bottle with a 0.22 μm pore membrane filter on the lid, allowing the circulation of CO2. […] All strains were maintained at 35 °C, at 5% CO2.
For the evaluation of the cytotoxic actions of the synthesized compounds, resazurin (Sigma-Aldrich) was used at a concentration of 0.1 mg/mL.
Standardization of this assay was not carried out in this project; thus, the following ideal values were used for the execution of the experiment: quantity of cells of 2 × 10^4 cell/mL, incubation time with the compounds of 48 h, incubation time with resazurin of one hour and DMSO used within the limit of 0.5%. As the cells grew in suspension, a long incubation period for adherence was not necessary. After plating, the cells were incubated for one hour, and then the prepared compounds were added and incubated for 47 h. After this period, resazurin was added at a final concentration per well of 0.01 mg/mL, and the first fluorescence reading (λex = 560 nm; λex = 590 nm) (zero time) was performed immediately using FlexStation 3 microplates (Molecular Devices). After the first reading, the plate was returned to the incubator, and after one hour, the second reading was performed, completing 48 h of incubation with the compounds. The compounds were solubilized in DMSO (Sigma-Aldrich) at concentrations ranging from 16.66 to 50 mM and maintained at −30 °C.
Analyses of the data obtained and graph construction were performed with the aid of GraphPad Prism 6 software (GraphPad Software Inc., San Diego, CA, USA).

[2] = WSS-1 cell viability assay (resazurin); format: cell-based; settings: human, WSS-1 cells (renal epithelium, adenovirus 5 transformed), concentration-response curve
Description: The assays were performed on two cell lines, as described below. […] WSS-1 (ATCC® CRL2029 ™): the cells used in this work were a healthy human cell line obtained from the renal epithelium of a fetus and transformed with adenovirus 5 DNA (ATCC: The Global Bioresource Center c). […] WSS-1 cells were cultured in high-glucose DMEM (Vitrocell) according to the provider’s recommendations (ATCC: The Global Bioresource Center c). The media were supplemented with 10% fetal bovine serum (FBS) and 50 μg/mL gentamicin. All cell lines were grown in a cell culture bottle with a 0.22 μm pore membrane filter on the lid, allowing the circulation of CO2. WSS-1 cells grew adherently, while cells of the K562 strain grew in suspension. All strains were maintained at 35 °C, at 5% CO2. In addition, all cell lines were routinely evaluated before freezing for storage in liquid nitrogen in the vapor phase for the detection of mycoplasma.
For the evaluation of the cytotoxic actions of the synthesized compounds, resazurin (Sigma-Aldrich) was used at a concentration of 0.1 mg/mL. The resazurin salt (Alamar Blue®) has a blue, nonfluorescent color and can be reduced to resorufin, which is pink and highly fluorescent. This process is an indicator of cell proliferation and fluorescent/colorimetric cytotoxicity with redox properties.
The first step of this assay consisted of plating the cells, with 5 × 10^4 cells per well. In this experiment, black plates with transparent bottoms and 96 wells (Greiner Bio-One) were used, and after plating, the cells were returned to the incubator for a period of approximately 20 h to allow growth and cell adhesion. The next step consisted of adding the obtained compounds, followed by incubation for a period of 46 h. Then, resazurin was added at a final concentration per well of 0.01 mg/mL, and immediately, the first fluorescence reading (λex = 560 nm; λex = 590 nm) (zero time) was performed using a FlexStation 3 microplate reader (Molecular Devices). After the first reading, the plate was returned to the incubator, and after two hours, the second reading was performed, completing 48 h of incubation with the compounds. As a negative control, cells treated with DMSO at a concentration of 0.5% instead of the obtained compounds were used. […] Preliminary screening of the compounds was carried out at fixed concentrations (1 and 10 μM) in triplicate. […] It should be noted that each experiment was carried out at least in duplicate. The fluorescence value at time zero (time immediately after the addition of resazurin) in each well was subtracted from the values obtained after two hours of incubation with resazurin. The average value with zero-time subtraction was used as 100% cell viability and was applied to calculate the percentage of cell viability in each well. […]

[3] = Solubility observed during concentration-response curve; format: physicochemical; settings: in the cell assay concentration-response curve
Description: Subsequently, a concentration-response curve was constructed for compounds 2g and 2h.

[4] = 48 h incubation, resazurin, read-out: CC50 K562
[5] = unit inferred, read-out: CC50 K562 (Figure 5)
[6] = WSS-1 cells, unit inferred, read-out: CC50 WSS1 (Figure 5)
[7] = WSS-1 healthy cells, 48 h incubation, resazurin, read-out: CC50 WSS-1

| melting point [°C] | SMILES | CC50 [1, 4] [nM] | other results |
| --- | --- | --- | --- |
| 145 to 146 | Cc1ccc(NC(=O)Cn2cc(CCCOc3ccnc4cc(Cl)ccc34)nn2)cc1Nc1nccc(-c2cccnc2)n1 [4b, 2-(4-(3-((7-Chloroquinolin-4-yl)oxy)propyl)-1H-1,2,3-triazol-1-yl)-N-(4-methyl-3-((4-(pyridin-3-yl)pyrimidin-2-yl)amino)phenyl)acetamide] | – | – |
| 245 to 247 | Cc1ccc(NC(=O)Cn2cc(COc3ccnc4cc(Cl)ccc34)nn2)cc1Nc1nccc(-c2cccnc2)n1 [4a, 2-(4-(((7-Chloroquinolin-4-yl)oxy)methyl)-1H-1,2,3-triazol-1-yl)-N-(4-methyl-3-((4-(pyridin-3-yl)pyrimidin-2-yl)amino)phenyl)acetamide] | – | – |

The remaining lines, values behind:

| SMILES | melting point [°C] | CC50 [1, 4] [nM] | other results |
| --- | --- | --- | --- |
| CCOC(=O)c1cnc2ccccc2c1Nc1ccc(C)c(Nc2nccc(-c3cccnc3)n2)c1 [2e, Ethyl 4-((4-methyl-3-((4-(pyridin-3-yl)pyrimidin-2-yl)amino)phenyl)amino)quinoline-3-carboxylate] | 208 to 211 | – | – |
| Cc1ccc(Nc2ccnc3ccccc23)cc1Nc1nccc(-c2cccnc2)n1 [2g, 4-Methyl-N^3-(4-(pyridin-3-yl)pyrimidin-2-yl)-N^1-(quinolin-4-yl)benzene-1,3-diamine] | 153 to 157 | 900 | CC50 [1, 5]: 874 nM; percentage of cell viability inhibition ([1]; K562 screening at 10 µM (Figure 4)): higher percentage of cell viability inhibition than IMT and BST; CC50 at 48 h [2, 6]: 215 nM; CC50 at 48 h [2, 7]: 200 nM |
| Cc1ccc(Nc2ccc3cccc(Cl)c3n2)cc1Nc1nccc(-c2cccnc2)n1 [2h, N^1-(8-Chloroquinolin-2-yl)-4-methyl-N^3-(4-(pyridin-3-yl)pyrimidin-2-yl)benzene-1,3-diamine] | 237 to 239 | 6200 | solubility [3]: low solubility at concentrations above 30 μM; CC50 [1, 5]: 6250 nM; CC50 at 48 h [2, 6]: 4920 nM; CC50 at 48 h [2, 7]: 4900 nM |
| Cc1ccc(-n2cc(CCCOc3ccnc4cc(Cl)ccc34)nn2)cc1Nc1nccc(-c2cccnc2)n1 [3b, N-(5-(4-(3-((7-Chloroquinolin-4-yl)oxy)propyl)-1H-1,2,3-triazol-1-yl)-2-methylphenyl)-4-(pyridin-3-yl)pyrimidin-2-amine] | 107 to 108 | – | – |
| Cc1ccc(NC(=O)c2ccc(CN3CCN(C)CC3)cc2)cc1Nc1nccc(-c2cccnc2)n1 [IMT, Imatinib, reference compound] | – | 80 | – |
| Cc1ccc(-n2cc(COc3ccnc4cc(Cl)ccc34)nn2)cc1Nc1nccc(-c2cccnc2)n1 [3a, N-(5-(4-(((7-Chloroquinolin-4-yl)oxy)methyl)-1H-1,2,3-triazol-1-yl)-2-methylphenyl)-4-(pyridin-3-yl)pyrimidin-2-amine] | 187 to 188 | – | – |
